Consider 21 compounds from patent US9045445B2, “Glycine transporter-1 inhibitors, methods of making them, and uses thereof” (Albany Molecular Research, Inc., priority 2010, dated 2015).

Structures can show the parent of a compound that is named as a salt. Where two headings read alike, the source gives them in different places.

Test [1] has as its target T1, glycine transporter-1 (GlyT-1) (Homo sapiens, UniProt P48067).
T1 construct: JAR cells (ATCC#HTB-144), which endogenously express GlyT-1; host or cells: JAR human choriocarcinoma cells
T1 sequence (P48067 1-706): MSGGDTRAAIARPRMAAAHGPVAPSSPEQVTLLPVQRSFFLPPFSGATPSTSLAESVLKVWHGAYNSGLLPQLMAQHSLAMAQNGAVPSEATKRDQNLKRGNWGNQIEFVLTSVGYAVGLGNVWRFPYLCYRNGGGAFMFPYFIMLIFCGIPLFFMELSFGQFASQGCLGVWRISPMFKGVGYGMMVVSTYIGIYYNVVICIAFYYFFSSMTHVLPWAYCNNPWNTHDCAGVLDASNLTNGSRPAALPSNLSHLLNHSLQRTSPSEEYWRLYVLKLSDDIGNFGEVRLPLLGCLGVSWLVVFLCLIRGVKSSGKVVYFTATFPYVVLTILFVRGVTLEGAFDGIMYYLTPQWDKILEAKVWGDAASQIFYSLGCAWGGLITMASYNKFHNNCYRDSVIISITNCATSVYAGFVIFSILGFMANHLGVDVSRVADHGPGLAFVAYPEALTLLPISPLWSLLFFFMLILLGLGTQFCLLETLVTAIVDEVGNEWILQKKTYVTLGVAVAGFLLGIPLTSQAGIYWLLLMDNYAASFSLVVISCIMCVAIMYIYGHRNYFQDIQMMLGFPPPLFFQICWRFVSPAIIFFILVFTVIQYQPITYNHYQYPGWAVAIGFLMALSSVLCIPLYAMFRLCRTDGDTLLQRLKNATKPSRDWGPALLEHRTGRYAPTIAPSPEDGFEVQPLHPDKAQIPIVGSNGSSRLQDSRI
Nature of the test: [14C]glycine uptake assay in JAR cells endogenously expressing GlyT-1 (scintillation proximity). Format: cell-based. An outline of the steps:
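Human choriocarcinoma JAR cells (endogenous GlyT-1) attached overnight, then pre-incubated 10 min at room temperature with compound in pH 7.4 Hepes uptake buffer containing 5 mM alanine and 0.75% DMSO. Uptake of 5 μM [14C]glycine over 3 h at 37 °C read by scintillation proximity; IC50 from four-parameter fit of nine-point curves.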

Test [2] deals with T2, glycine transporter-2 (GlyT-2) (Homo sapiens, UniProt Q9Y345).
T2 construct: expressed in transfected cells
T2 sequence (Q9Y345 1-797): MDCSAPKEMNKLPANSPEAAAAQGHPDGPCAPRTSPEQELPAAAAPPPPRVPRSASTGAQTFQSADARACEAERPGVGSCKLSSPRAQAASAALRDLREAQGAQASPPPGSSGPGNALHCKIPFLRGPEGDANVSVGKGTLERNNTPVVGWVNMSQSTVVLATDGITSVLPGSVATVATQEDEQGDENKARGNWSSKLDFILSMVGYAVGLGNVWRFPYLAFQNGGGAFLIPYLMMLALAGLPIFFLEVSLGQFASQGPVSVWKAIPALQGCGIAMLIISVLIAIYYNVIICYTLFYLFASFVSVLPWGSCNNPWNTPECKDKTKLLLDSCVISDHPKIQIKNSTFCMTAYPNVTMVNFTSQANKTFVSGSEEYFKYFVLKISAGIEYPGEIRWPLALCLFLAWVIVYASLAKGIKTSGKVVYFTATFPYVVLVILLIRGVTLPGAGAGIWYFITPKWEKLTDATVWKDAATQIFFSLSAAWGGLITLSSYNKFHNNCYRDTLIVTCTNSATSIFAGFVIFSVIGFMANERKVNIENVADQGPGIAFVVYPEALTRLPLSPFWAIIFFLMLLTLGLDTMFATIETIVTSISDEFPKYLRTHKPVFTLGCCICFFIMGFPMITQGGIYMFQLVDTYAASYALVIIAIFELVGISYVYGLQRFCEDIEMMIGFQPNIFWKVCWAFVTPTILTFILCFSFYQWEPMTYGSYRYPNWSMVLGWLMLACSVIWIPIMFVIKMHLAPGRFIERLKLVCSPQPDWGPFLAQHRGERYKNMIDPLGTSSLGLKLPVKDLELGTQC
Nature of the test: [14C]glycine uptake assay in HEK-GlyT-2 transfected cells. Particulars: HEK-GlyT-2 cells. Format: cell-based.

The mark [3] stands for this setting: JAR cells, [14C]glycine 5 μM, 3 hour incubation, read-out: GlyT-1 IC50.

The term IC50 denotes the concentration that inhibits the measured activity by half. For the compound `Cn1cnc(S(=O)(=O)N2CCN(C3(CNC(=O)c4c(F)cc(F)cc4F)CCC(F)(F)CC3)CC2)c1` [compound 167, N-((4,4-Difluoro-1-(4-(1-methyl-1H-imidazol-4-ylsulfonyl)piperazin-1-yl)cyclohexyl)methyl)-2,4,6-trifluorobenzamide Hydrochloride], the IC50 in test [1] (setting [3]) was 11 nM; in test [2], over 75 µM.
The matching figures for `CCCS(=O)(=O)N1CCN(C2(CNC(=O)c3c(N)cccc3Cl)Cc3ccccc3C2)CC1` [compound 115, 2-Amino-6-chloro-N-((2-(4-(propylsulfonyl)piperazin-1-yl)-2,3-dihydro-1H-inden-2-yl)methyl)benzamide Hydrochloride]: 661 nM and over 75 µM.
`CCCS(=O)(=O)N1CCN(C2(CNC(=O)c3ccc(F)cc3)CCCCC2)CC1` [compound 15, 4-Fluoro-N-((1-(4-(propylsulfonyl)piperazin-1-yl)cyclohexyl)methyl) benzamide Hydrochloride]: the results for the half-maximal inhibitory concentration (IC50) in test [1] (setting [3]) and in test [2] were 786 nM and over 75 µM, respectively.
For `CCCS(=O)(=O)N1CCN(C2(CNC(=O)c3ccc(Cl)cc3Cl)CCCOC2)CC1` (stereo not drawn) [compound 125, 2,4-Dichloro-N-((3-(4-(propylsulfonyl)piperazin-1-yl)tetrahydro-2H-pyran-3-yl)methyl)benzamide Hydrochloride], in that order: 177 nM and over 75 µM.
The matching figures for `Cn1cnc(S(=O)(=O)N2CCN(C3(CNC(=O)c4ccc(F)cc4Cl)CCCCC3)CC2)c1` [compound 101, 2-Chloro-4-fluoro-N-((1-(4-(1-methyl-1H-imidazol-4-ylsulfonyl)piperazin-1-yl)cyclohexyl)methyl) benzamide Hydrochloride]: 2 nM and over 75 µM.
On to `CCCS(=O)(=O)N1CCN(C2(CNC(=O)c3ccc(C(F)(F)F)cc3Cl)CCC(F)(F)CC2)CC1C` (stereo not drawn) [compound 256, 2-Chloro-N-((4,4-difluoro-1-(3-methyl-4-(propylsulfonyl)piperazin-1-yl)cyclohexyl)methyl)-4-(trifluoromethyl) benzamide Hydrochloride], for which the IC50 is 133 nM in test [1] (setting [3]) and over 75 µM in test [2].
As for `CCCS(=O)(=O)N1CCN(C2(CNC(=O)c3c(N)cccc3Cl)CCCCCC2)CC1` [compound 56, 2-Amino-6-chloro-N-((1-(4-(propylsulfonyl)piperazin-1-yl)cycloheptyl)methyl) benzamide Hydrochloride], the 50% inhibitory concentration (IC50) in test [1] (setting [3]) turned out to be 6 nM; in test [2] it was 39 µM.
For the compound `CCCS(=O)(=O)N1CCN(C2(CNC(=O)c3c(F)cccc3F)CCCCCC2)CC1` [compound 66, 2,6-Difluoro-N-((1-(4-(propylsulfonyl)piperazin-1-yl)cycloheptyl)methyl) benzamide Hydrochloride], the half-maximal inhibitory concentration (IC50) was 29 nM in test [1] (setting [3]) and over 45 µM in test [2].
The matching figures for `CCCS(=O)(=O)N1CCN(C2(CNC(=O)c3c(N)cccc3Cl)CCN(C)CC2)CC1` [compound 116, 2-Amino-6-chloro-N-((1-methyl-4-(4-(propylsulfonyl)piperazin-1-yl)piperidin-4-yl)methyl)benzamide Hydrochloride]: 500 nM and over 75 µM.
For `Cn1cc(S(=O)(=O)N2CCN(C3(CNC(=O)c4ccc(C(F)(F)F)cc4F)CCC(F)(F)CC3)CC2)nn1` [compound 232, N-((4,4-Difluoro-1-(4-(1-methyl-1H-1,2,3-triazol-4-ylsulfonyl)piperazin-1-yl)cyclohexyl)methyl)-2-fluoro-4-(trifluoromethyl)benzamide Hydrochloride], the IC50 in test [1] (setting [3]) was 6 nM; in test [2] it was over 75 µM.
As to `CCCS(=O)(=O)N1CCN(C2(CNC(=O)c3c(Cl)cccc3Cl)CCCCCC2)CC1` [compound 64, 2,6-Dichloro-N-((1-(4-(propylsulfonyl)piperazin-1-yl)cycloheptyl)methyl) benzamide Hydrochloride], the half-inhibitory concentration (IC50) in test [1] (setting [3]) was 11 nM; in test [2], over 75 µM.
Consider `CS(=O)(=O)N1CCN(C2(CNC(=O)c3c(N)cccc3Cl)CCCCC2)CC1` [compound 90, 2-Amino-6-chloro-N-((1-(4-(methylsulfonyl)piperazin-1-yl)cyclohexyl)methyl) benzamide Hydrochloride], for which the results for the IC50 in test [1] (setting [3]) and in test [2] were 339 nM and over 75 µM, respectively.
Take `CC(NC(=O)c1ccc(C(F)(F)F)cc1C(F)(F)F)C1(N2CCN(S(=O)(=O)c3cn(C)nn3)CC2)CCC(F)(F)CC1` (stereo not drawn) [compound 225, N-(1-(4,4-Difluoro-1-(4-(1-methyl-1H-1,2,3-triazol-4-ylsulfonyl)piperazin-1-yl)cyclohexyl)ethyl)-2,4-bis(trifluoromethyl) benzamide Hydrochloride]: the IC50 in test [1] (setting [3]) was 28 nM; in test [2] it was over 75 µM.
Regarding `CCCS(=O)(=O)N1CCN(C2(CNC(=O)c3ccccc3C(F)(F)F)CCC(F)(F)CC2)CC1` [compound 132, N-((4,4-Difluoro-1-(4-(propylsulfonyl)piperazin-1-yl)cyclohexyl)methyl)-2-(trifluoromethyl) benzamide Hydrochloride], the 50% inhibitory concentration (IC50) in test [1] (setting [3]) is 64 nM; in test [2], over 75 µM.
The matching figures for `CCCS(=O)(=O)N1CCN(C2(CNC(=O)c3c(C(F)(F)F)ccc(Cl)c3F)CCCCC2)CC1` [compound 5, 3-Chloro-2-fluoro-N-((1-(4-(propylsulfonyl)piperazin-1-yl)cyclohexyl)methyl)-6-(trifluoromethyl)benzamide Hydrochloride]: 43 nM and at least 75 µM.
Consider `CCCS(=O)(=O)N1CCN(C2(CNC(=O)c3c(OC)cc(F)cc3SC)CCCCC2)CC1` [compound 20, 4-Fluoro-2-methoxy-6-(methylthio)-N-((1-(4-(propylsulfonyl)piperazin-1-yl)cyclohexyl)methyl)benzamide Hydrochloride], for which the 50% inhibitory concentration (IC50) in test [1] (GlyT-1 IC50 (nM)) was 6 nM; in test [2], over 75 µM.
As to `Cn1cnc(S(=O)(=O)N2CCN(C3(CNC(=O)c4ccc(Cl)cc4Cl)CCCCC3)CC2)c1` [compound 97, 2,4-Dichloro-N-((1-(4-(1-methyl-1H-imidazol-4-ylsulfonyl)piperazin-1-yl)cyclohexyl)methyl) benzamide Hydrochloride], the IC50 was 2 nM in test [1] (setting [3]) and over 75 µM in test [2].
Turning to `CCCS(=O)(=O)N1CCN(C2(CNC(=O)c3ccc(-c4ccccc4)cc3)CCCCC2)CC1` [compound 38, N-((1-(4-(Propylsulfonyl)piperazin-1-yl)cyclohexyl)methyl) biphenyl-4-carboxamide Hydrochloride], the half-inhibitory concentration (IC50) in test [1] (setting [3]) came to 172 nM; in test [2], 1.4 µM.
Regarding `CCCS(=O)(=O)N1CCN(C2(CNC(=O)c3ccccc3Cl)CCCCC2)CC1` [compound 8, 2-Chloro-N-((1-(4-(propylsulfonyl)piperazin-1-yl)cyclohexyl)methyl) benzamide Hydrochloride], the IC50 in test [1] (setting [3]) was 36 nM; in test [2], over 75 µM.
As for `CCCS(=O)(=O)N1CCN(C2(CNC(=O)c3ccc(C)cc3C)CCCCC2)CC1` [compound 30, 2,4-Dimethyl-N-((1-(4-(propylsulfonyl)piperazin-1-yl)cyclohexyl)methyl) benzamide Hydrochloride], the IC50 in test [1] (setting [3]) was 79 nM; in test [2], over 75 µM.
As to `Cn1cc(S(=O)(=O)N2CCN(C3(CNC(=O)c4c(F)cccc4F)CCCC3)CC2)nn1` [compound 108, 2,6-Difluoro-N-((1-(4-(1-methyl-1H-1,2,3-triazol-4-ylsulfonyl)piperazin-1-yl)cyclopentyl)methyl) benzamide Hydrochloride], the results for the IC50 in test [1] (setting [3]) and in test [2] were 55 nM and over 75 µM, respectively.
